From PubChem BioAssay AID342 (DTP/NCI, 2004) come the findings set out here.

Usually T/C stands for the ratio of treated to control.

Values joined by “and” are separate entries in the source; they are usually repeats but may differ in a detail not shown here. Identical values can stand only once.

The assay relates to Swiss mice, Sarcoma 180 sc, mean tumor weight T/C. Put plainly: NCI In Vivo Anticancer Drug Screen. Data for tumor model Sarcoma 180 (subcutaneous) in Swiss mice. As to conditions: endpoint: mean tumor weight, higher = larger tumour. An outline of the steps:
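T/C ratio: treated over vehicle-treated controls, measuring survival or tumor size in transplanted-tumor mice.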

The mark [1] stands for this setting: dose: 62.5 mg/kg/injection, schedule: Q01DX007 (ip), vehicle: carboxymethylcellulose (CMC).
Where [2] appears, read: dose: 125.0 mg/kg/injection, schedule: Q01DX007 (ip), vehicle: carboxymethylcellulose (CMC).
Setting [3] is: dose: 250.0 mg/kg/injection, schedule: Q01DX007 (ip), vehicle: carboxymethylcellulose (CMC).

For `Cc1cc2nc3c(=O)[nH]c(=O)nc-3n(CC(O)C(O)C(O)C(O)CO)c2cc1C` (centres undefined), the T/C by setting is: (dose: 31.25 mg/kg/injection, schedule: Q01DX007 (ip), vehicle: carboxymethylcellulose (CMC)) 87 % of control; (dose: 38.25 mg/kg/injection, schedule: Q01DX007 (ip), vehicle: carboxymethylcellulose (CMC)) 54 % of control; under setting [1], 66 % of control; (dose: 76.5 mg/kg/injection, schedule: Q01DX007 (ip), vehicle: carboxymethylcellulose (CMC)) 48 % of control; under setting [2], 83 % of control; (dose: 153.0 mg/kg/injection, schedule: Q01DX007 (ip), vehicle: carboxymethylcellulose (CMC)) 63 % of control. The T/C under setting [3] was 60 % of control and the T/C (dose: 306.0 mg/kg/injection, schedule: Q01DX007 (ip), vehicle: carboxymethylcellulose (CMC)) is 57 % of control.
Regarding `CN(/N=N/N(C)c1ccccc1)c1ccccc1`, the T/C by setting is: (dose: 7.8 mg/kg/injection, schedule: Q01DX007 (ip), vehicle: carboxymethylcellulose (CMC)) 72 % of control; (dose: 15.6 mg/kg/injection, schedule: Q01DX007 (ip), vehicle: carboxymethylcellulose (CMC)) 62 % of control; (dose: 31.3 mg/kg/injection, schedule: Q01DX007 (ip), vehicle: carboxymethylcellulose (CMC)) 75 % of control; under setting [1], 49 % of control and 74 % of control; under setting [2], 37 % of control.
As for `C(=N\N(c1ccccc1)c1ccccc1)/C(=C/c1ccccc1)c1ccccc1`, the T/C is, setting by setting: under setting [2], 85 % of control; under setting [3], 92 % of control; (dose: 500.0 mg/kg/injection, schedule: Q01DX007 (ip), vehicle: carboxymethylcellulose (CMC)) 102 % of control.
Turning to `O=C(O)Cc1c[nH]c2ccccc12`, the T/C (dose: 31.3 mg/kg/injection, schedule: Q01DX007 (ip), vehicle: saline) is 64 % of control; the T/C (dose: 62.5 mg/kg/injection, schedule: Q01DX007 (ip), vehicle: saline) is 71 % of control; the T/C (dose: 125.0 mg/kg/injection, schedule: Q01DX007 (ip), vehicle: saline) is 52 % of control; the T/C (dose: 250.0 mg/kg/injection, schedule: Q01DX007 (ip), vehicle: saline) was 95 % of control.
For the compound `CC(C)OC(=O)C1(N)CCCC1`, the T/C runs as follows: (dose: 33.0 mg/kg/injection, schedule: Q#A X014 (ip), vehicle: saline) 61 % of control; (dose: 50.0 mg/kg/injection, schedule: Q#A X014 (ip), vehicle: saline) 67 % of control; (dose: 75.0 mg/kg/injection, schedule: Q#A X014 (ip), vehicle: saline) 49 % of control; (dose: 112.5 mg/kg/injection, schedule: Q#A X014 (ip), vehicle: saline) 20 % of control.
In the case of `COC1N(C2CC(O)C(CO)O2)C(=O)NC(=O)C1(F)Br` (centres undefined), the T/C was 85 % of control and 99 % of control (dose: 22.0 mg/kg/injection, schedule: Q01DX007 (ip), vehicle: saline); 26 % of control and 43 % of control (dose: 75.0 mg/kg/injection, schedule: Q01DX007 (ip), vehicle: saline).
Consider `CCCCSc1ncnc2nc[nH]c12`, for which the T/C (dose: 44.0 mg/kg/injection, schedule: Q01DX007 (ip), vehicle: carboxymethylcellulose (CMC)) is 55 % of control; the T/C (dose: 51.0 mg/kg/injection, schedule: Q01DX007 (ip), vehicle: carboxymethylcellulose (CMC)) was 53 % of control; the T/C (dose: 93.0 mg/kg/injection, schedule: Q01DX007 (ip), vehicle: carboxymethylcellulose (CMC)) is 41 % of control.
On to `CC1(C)CCC2(C(=O)O)CCC3=C(C(CCl)CC4C3(C)CCC3C4(C)CC(O)C(O)C3(C)C(=O)O)C2C1` (centres undefined), for which the T/C is 108 % of control (dose: 25.0 mg/kg/injection, schedule: Q01DX007 (ip), vehicle: carboxymethylcellulose (CMC)); 80 % of control (dose: 50.0 mg/kg/injection, schedule: Q01DX007 (ip), vehicle: carboxymethylcellulose (CMC)); 157 % of control (dose: 75.0 mg/kg/injection, schedule: Q01DX007 (ip), vehicle: carboxymethylcellulose (CMC)); 70 % of control under setting [2].
Consider `CC(=O)OCC(=O)[C@@]1(O)CC[C@H]2[C@@H]3C[C@H](F)C4=CC(=O)CC[C@]4(C)[C@H]3C(=O)C[C@@]21C`, for which the T/C by setting is: (dose: 2.5 mg/kg/injection, schedule: Q01DX007 (sc), vehicle: steriod suspending solution) 60 % of control; (dose: 5.0 mg/kg/injection, schedule: Q01DX007 (sc), vehicle: steriod suspending solution) 49 % of control; (dose: 10.0 mg/kg/injection, schedule: Q01DX007 (sc), vehicle: steriod suspending solution) 51 % of control; (dose: 19.0 mg/kg/injection, schedule: Q01DX007 (sc), vehicle: steriod suspending solution) 41 % of control; (dose: 29.0 mg/kg/injection, schedule: Q01DX007 (sc), vehicle: steriod suspending solution) 31 % of control.
Consider `O=c1[nH]cc(F)c(=O)[nH]1`, for which the T/C is 83 % of control (dose: 3.12 mg/kg/injection, schedule: Q#A X014 (ip), vehicle: carboxymethylcellulose (CMC)); 100 % of control (dose: 6.25 mg/kg/injection, schedule: Q#A X014 (ip), vehicle: carboxymethylcellulose (CMC)); 83 % of control (dose: 6.3 mg/kg/injection, schedule: Q#A X014 (ip), vehicle: carboxymethylcellulose (CMC)); 48 % of control (dose: 9.5 mg/kg/injection, schedule: Q#A X014 (ip), vehicle: carboxymethylcellulose (CMC)); 90 % of control (dose: 12.5 mg/kg/injection, schedule: Q#A X014 (ip), vehicle: carboxymethylcellulose (CMC)); 39 % of control (dose: 12.66 mg/kg/injection, schedule: Q#A X014 (ip), vehicle: carboxymethylcellulose (CMC)). Also, the T/C runs as follows: (dose: 15.2 mg/kg/injection, schedule: Q01DX007 (ip), vehicle: carboxymethylcellulose (CMC)) 73 % of control and 89 % of control; (dose: 19.0 mg/kg/injection, schedule: Q#A X014 (ip), vehicle: carboxymethylcellulose (CMC)) 2 % of control; (dose: 25.0 mg/kg/injection, schedule: Q#A X014 (ip), vehicle: carboxymethylcellulose (CMC)) 25 % of control; (dose: 25.3 mg/kg/injection, schedule: Q01DX007 (ip), vehicle: carboxymethylcellulose (CMC)) 76 % of control; (dose: 25.33 mg/kg/injection, schedule: Q01DX007 (ip), vehicle: carboxymethylcellulose (CMC)) 53 % of control.
As to `O=C(O)c1[nH]c(=O)[nH]c(=O)c1F`, the T/C runs as follows: (dose: 3.35 mg/kg/injection, schedule: Q#A X014 (ip), vehicle: methylcellulose (MC)) 62 % of control; (dose: 5.0 mg/kg/injection, schedule: Q#A X014 (ip), vehicle: methylcellulose (MC)) 49 % of control; (dose: 7.5 mg/kg/injection, schedule: Q#A X014 (ip), vehicle: methylcellulose (MC)) 46 % of control; (dose: 11.25 mg/kg/injection, schedule: Q#A X014 (ip), vehicle: methylcellulose (MC)) 22 % of control.
As for `CN=C(N)/N=C(\N)Nc1cc2ccccc2c2ccccc12`, the T/C was 89 % of control (dose: 1.0 mg/kg/injection, schedule: Q01DX007 (ip), vehicle: acid diluted with saline); 93 % of control (dose: 2.0 mg/kg/injection, schedule: Q01DX007 (ip), vehicle: acid diluted with saline); 92 % of control (dose: 4.0 mg/kg/injection, schedule: Q01DX007 (ip), vehicle: acid diluted with saline).
In the case of `COc1ccccc1NC(=O)CSC(N)=O`, the T/C by setting is: (dose: 110.0 mg/kg/injection, schedule: Q01DX007 (ip), vehicle: carboxymethylcellulose (CMC)) 78 % of control; (dose: 165.0 mg/kg/injection, schedule: Q01DX007 (ip), vehicle: carboxymethylcellulose (CMC)) 74 % of control; under setting [3], 61 % of control; (dose: 375.0 mg/kg/injection, schedule: Q01DX007 (ip), vehicle: carboxymethylcellulose (CMC)) 28 % of control.
For `COC(=O)C1C(O)CCC2CN3CCc4c([nH]c5ccccc45)C3CC21` (centres undefined), under “dose: 150.0 mg/kg/injection, schedule: Q01DX007 (ip), vehicle: carboxymethylcellulose (CMC)”, the T/C is 72 % of control.
In the case of `CCCCCCCCCCC(O)CN1CCN(c2ccc(C)cc2)CC1` (centres undefined), the T/C (dose: 110.0 mg/kg/injection, schedule: Q01DX007 (ip), vehicle: olive oil, sesame oil, peanut oil) is 63 % of control; the T/C (dose: 168.0 mg/kg/injection, schedule: Q01DX007 (ip), vehicle: olive oil, sesame oil, peanut oil) is 51 % of control; the T/C (dose: 250.0 mg/kg/injection, schedule: Q01DX007 (ip), vehicle: olive oil, sesame oil, peanut oil) was 77 % of control.
